According to BindingDB's records for patent US20250313563 (The Broad Institute, 2025):
Where “and” joins values, the source holds several entries; their conditions need not be identical. Equal values may be shown once.

Assays:
[1] = biological target: Glycogen synthase kinase-3 beta (Homo sapiens, UniProt P49841); assay: TR-FRET Assay
Outline: (§1)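 Signal is measured as TR-FRET between a terbium anti-phospho-Ser641 antibody and streptavidin-d2, added after an EDTA quench. Compounds are preincubated 30 min in assay buffer.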

[2] = biological target: Glycogen synthase kinase-3 alpha (Homo sapiens, UniProt P49840); assay: TR-FRET Assay
Outline: as §1

Chain of Glycogen synthase kinase-3 alpha (P49840 whole entry): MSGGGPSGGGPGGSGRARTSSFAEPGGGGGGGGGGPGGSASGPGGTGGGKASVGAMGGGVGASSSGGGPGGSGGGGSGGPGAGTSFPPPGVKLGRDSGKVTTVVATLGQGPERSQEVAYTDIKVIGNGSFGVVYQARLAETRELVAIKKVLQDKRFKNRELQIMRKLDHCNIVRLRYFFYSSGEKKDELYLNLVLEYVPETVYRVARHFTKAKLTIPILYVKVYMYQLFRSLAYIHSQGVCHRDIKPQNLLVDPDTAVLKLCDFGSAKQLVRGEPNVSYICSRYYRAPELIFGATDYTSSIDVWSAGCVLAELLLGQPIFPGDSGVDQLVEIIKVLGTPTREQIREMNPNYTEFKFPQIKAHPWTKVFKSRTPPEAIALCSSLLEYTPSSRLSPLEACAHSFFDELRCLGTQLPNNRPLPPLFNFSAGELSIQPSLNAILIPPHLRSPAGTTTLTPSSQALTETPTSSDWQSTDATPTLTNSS
Chain of Glycogen synthase kinase-3 beta (P49841 whole entry): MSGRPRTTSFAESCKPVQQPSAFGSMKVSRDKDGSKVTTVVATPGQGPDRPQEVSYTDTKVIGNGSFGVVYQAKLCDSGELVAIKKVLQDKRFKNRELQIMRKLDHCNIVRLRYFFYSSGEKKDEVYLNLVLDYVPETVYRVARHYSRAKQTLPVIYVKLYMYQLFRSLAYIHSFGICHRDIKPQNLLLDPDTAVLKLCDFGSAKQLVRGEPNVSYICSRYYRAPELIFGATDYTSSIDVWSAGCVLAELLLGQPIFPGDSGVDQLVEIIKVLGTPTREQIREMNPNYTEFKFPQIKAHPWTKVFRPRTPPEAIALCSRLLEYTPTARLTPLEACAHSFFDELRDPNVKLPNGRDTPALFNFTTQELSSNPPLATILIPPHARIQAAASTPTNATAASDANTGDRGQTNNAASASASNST

Row | SMILES | IC50 [1] | IC50 [2]
1 | CCC1(c2cccc(C(F)(F)F)c2)C2=CN=NC2NC2=C1C(=O)NC(C)C2 (stereo unspecified) [US20250313563, Compound 911956] | 100 to 1000 nM | < 100 nM
2 | CCC1(c2cccc(COC)c2)C2=CN=NC2NC2=C1C(=O)CC(C)(C)C2 (stereo unspecified) [US20250313563, Compound 801323] | 100 to 1000 nM | < 100 nM
3 | CCC1(c2cccc(N3CCCC3)c2)C2=CN=NC2NC2=C1C(=O)CC(C)(C)C2 (stereo unspecified) [US20250313563, Compound 801317] | 100 to 1000 nM | 100 to 1000 nM
4 | CCC1(c2cccc(C(F)(F)F)c2)C2=CN=NC2NC2=C1C(=O)NC(C)(C)C2F (stereo unspecified) [US20250313563, Compound 819622] | 100 to 1000 nM | < 100 nM
5 | CC[C@]1(c2cccc(Br)c2)C2=CN=NC2NC2=C1C(=O)C[C@H](C)C2 (stereo partly specified) [US20250313563, Compound 810486] | 100 to 1000 nM | < 100 nM
6 | CCC1(c2cccc(N(C(C)=O)C3CCCC3)c2)C2=CN=NC2NC2=C1C(=O)CC(C)(C)C2 (stereo unspecified) [US20250313563, Compound 912069] | < 100 nM | < 100 nM
7 | CC1(C)CC(=O)C2=C(C1)NC1=C(CN=N1)C21CCN(S(=O)(=O)C2CCCCC2)CC1 [US20250313563, Compound 913128] | < 100 nM and 100 to 1000 nM | < 100 nM
8 | CC(=O)N1CC[C@@]2(C1)C1=C(N=NC1)NC1=C2C(=O)CC(C)(C)C1 [US20250313563, Compound 889584] | 1000 to 5000 nM | 100 to 1000 nM
9 | CCC1(c2cccc(S(C)(=O)=O)c2)C2=CN=NC2NC2=C1C(=O)CC(C)(C)C2 (stereo unspecified) [US20250313563, Compound 819561] | < 100 nM | < 100 nM
10 | CCC1(c2cccc(N3CCCC3)c2)C2=C(CC(C)(C)CC2=O)NC2N=NC(C)=C21 (stereo unspecified) [US20250313563, Compound 874314] | < 100 nM | < 100 nM
11 | CC1(C)CC(=O)C2=C(C1)NC1=C(CN=N1)[C@]21C[C@H](OCc2ccccc2)C1 [US20250313563, Compound 909210] | 100 to 1000 nM | 100 to 1000 nM
12 | CC[C@]1(c2ccccc2)C2=CN=NC2NC2=C1C(=O)C[C@H](C)C2 (stereo partly specified) [US20250313563, Compound 789010] | 100 to 1000 nM | 100 to 1000 nM
13 | CC(C)(C)CC1N=NC2=C1[C@@](C)(c1cccc(S(=O)(=O)CC3CC3)c1)C1=C(CC(C)(C)NC1=O)N2 (stereo partly specified) [US20250313563, Compound 108006] | > 5000 nM | > 5000 nM
14 | CC1(C)CC(=O)C2=C(C1)NC1=C(CN=N1)[C@@]21CCOC2(CCC2)C1 [US20250313563, Compound 897755] | 1000 to 5000 nM | 1000 to 5000 nM
15 | CCC1(c2ccccc2)C2=C(CC(C)(C)CC2=O)NC2N=NC(C(F)(F)F)=C21 (stereo unspecified) [US20250313563, Compound 792343] | < 100 nM | < 100 nM
16 | O=C1C[C@@]2(CCOC2)CC2=C1C1(CCOCC1)C1=C(N=NC1)N2 [US20250313563, Compound 901475] | 100 to 1000 nM | 100 to 1000 nM
17 | CC1(C)CC(=O)C2=C(C1)NC1=C(CN=N1)C21CNC1 [US20250313563, Compound 912075] | > 5000 nM | 1000 to 5000 nM
18 | CC[C@]1(c2cccc(-c3c(C)nn(C)c3C)c2)C2=CN=NC2NC2=C1C(=O)CC(C)(C)C2 (stereo partly specified) [US20250313563, Compound 911990] | < 100 nM and 100 to 1000 nM | < 100 nM
19 | CC[C@@]1(c2cccc(-c3c(C)nn(C)c3C)c2)C2=C(CC(C)(C)CC2=O)NC2N=NC(C)=C21 (stereo partly specified) [US20250313563, Compound 913026] | 100 to 1000 nM | 100 to 1000 nM
20 | CC1(C)CC(=O)C2=C(C1)NC1=C(CN=N1)[C@@]21CCCC(C)(C)C1 [US20250313563, Compound 883846] | 1000 to 5000 nM | 100 to 1000 nM
21 | CC1(C)CC(=O)C2=C(C1)NC1=C(CN=N1)C21CC(c2ccccc2)C1 (stereo unspecified) [US20250313563, Compound 917081] | < 100 nM | < 100 nM
22 | CC[C@@]1(c2cccc(C)c2)C2=CN=NC2NC2=C1C(=O)CC(C)(C)C2 (stereo partly specified) [US20250313563, Compound 789561] | > 5000 nM | 1000 to 5000 nM
23 | CC1(C)CC(=O)C2=C(C1)NC1N=NC(CCC(F)(F)F)=C1C2(C)c1ccccc1 (stereo unspecified) [US20250313563, Compound 828845] | 100 to 1000 nM | 100 to 1000 nM
24 | CC[C@]1(c2cccc(OC(C)C)c2)C2=CN=NC2NC2=C1C(=O)CC(C)(C)C2 (stereo partly specified) [US20250313563, Compound 811564] | < 100 nM | < 100 nM
25 | CC[C@@]1(c2ccccc2)C2=CN=NC2NC2=C1C(=O)C[C@H](C(F)(F)F)C2 (stereo partly specified) [US20250313563, Compound 806608] | > 1670 nM | 100 to 1000 nM
26 | CCC1(c2cccc(N(C)c3ccncc3)c2)C2=CN=NC2NC2=C1C(=O)CC(C)(C)C2 (stereo unspecified) [US20250313563, Compound 853910] | 1000 to 5000 nM | 100 to 1000 nM

The next lines start with the values.

Row | IC50 [1] | IC50 [2] | SMILES
27 | 1000 to 5000 nM | 100 to 1000 nM | CCN(c1cccnc1)c1cccc([C@]2(CC)C3=CN=NC3NC3=C2C(=O)CC(C)(C)C3)c1 (stereo partly specified) [US20250313563, Compound 917089]
28 | < 100 nM and 1000 to 5000 nM | < 100 nM and 100 to 1000 nM | CC[C@]1(c2cccc(-c3c(F)cncc3OC)c2)C2=C(N=NC2)NC2=C1C(=O)C(C)(C)C2 [US20250313563, Compound 952564]
29 | > 5000 nM | 1000 to 5000 nM | CC[C@]1(c2cccc(-c3ccncc3O)c2)C2=CN=NC2NC2=C1C(=O)CC(C)(C)C2 (stereo partly specified) [US20250313563, Compound 945728]
30 | < 100 nM | < 100 nM | CC1(C)CC(=O)C2=C(C1)NC1=C(CN=N1)C21CCN(S(=O)(=O)c2cnn(-c3ccccc3)c2)CC1 [US20250313563, Compound 947904]
31 | 100 to 1000 nM | < 100 nM | CC[C@@]1(c2cccc(-c3cnn(CCOC)c3)c2)C2=CN=NC2NC2=C1C(=O)NC(C)(C)C2 (stereo partly specified) [US20250313563, Compound 949105]
32 | < 100 nM | < 100 nM | CCC1(c2cccc(-c3cc(C)ncc3C)c2)C2=C(CC(C)(C)CC2=O)NC2N=NC(C(F)(F)F)=C21 (stereo unspecified) [US20250313563, Compound 945530]
33 | < 100 nM | < 100 nM | COc1ccc(S(=O)(=O)N2CCC3(CC2)C2=C(N=NC2)NC2=C3C(=O)CC(C)(C)C2)cc1Cl [US20250313563, Compound 947612]
34 | 100 to 1000 nM | < 100 nM | CC[C@@]1(c2cccc(-c3cnn4cc(F)cc(F)c34)c2)C2=CN=NC2NC2=C1C(=O)NC(C)(C)C2 (stereo partly specified) [US20250313563, Compound 950565]
35 | 100 to 1000 nM | < 100 nM | CC1(C)CC(=O)C2=C(NC3=C(CN=N3)[C@]23CC[C@H](C(F)(F)F)CC3)C1F (stereo partly specified) [US20250313563, Compound 917136]
36 | > 5000 nM | 1000 to 5000 nM | CC[C@]1(c2cccc(-c3cnn4c3CC(C)(C)CC4)c2)C2=CN=NC2NC2=C1C(=O)NC(C)(C)C2 (stereo partly specified) [US20250313563, Compound 949265]
37 | < 100 nM | < 100 nM | CCC1(c2cccc(-c3cnnn3C)c2)C2=CN=NC2NC2=C1C(=O)CC(C)(C)C2 (stereo unspecified) [US20250313563, Compound 947398]
38 | 100 to 1000 nM | 100 to 1000 nM | C[C@@H]1C[C@@]2(CCN1S(C)(=O)=O)C1=C(N=NC1)NC1=C2C(=O)CC(C)(C)C1 [US20250313563, Compound 918315]
39 | < 100 nM | < 100 nM | CC[C@]1(c2cccc(-c3ccncc3CO)c2)C2=CN=NC2NC2=C1C(=O)CC(C)(C)C2 (stereo partly specified) [US20250313563, Compound 945469]
40 | 100 to 1000 nM | 100 to 1000 nM | CC[C@]1(c2cccc(-c3ccnc(C)c3)c2)C2=C(CC(C)(C)NC2=O)NC2N=NC(C(F)F)=C21 (stereo partly specified) [US20250313563, Compound 950162]
41 | 100 to 1000 nM | 100 to 1000 nM | CC[C@]1(c2cccc(-c3ccnc(C)c3C)c2)C2=C(CC(C)(C)NC2=O)NC2N=NC(C(F)(F)F)=C21 (stereo partly specified) [US20250313563, Compound 948181]
42 | 1000 to 5000 nM | 100 to 1000 nM | CC[C@]1(c2ccccc2)C2=CN=NC2NC2=C1C(=O)[C@@H](F)C(C)(C)C2 (stereo partly specified) [US20250313563, Compound 957405]
43 | > 5000 nM | > 5000 nM | CC[C@]1(c2cccc(-c3ccnc(C)c3Cl)c2)C2=CN=NC2NC2=C1C(=O)NC(C)(C)C2 (stereo partly specified) [US20250313563, Compound 948369]
44 | > 5000 nM | 100 to 1000 nM | CC[C@]1(c2cccc(N(C)c3ncccn3)c2)C2=CN=NC2NC2=C1C(=O)NC(C)(C)C2 (stereo partly specified) [US20250313563, Compound 947825]
45 | 100 to 1000 nM | < 100 nM | CCC1(c2cccc(-c3cnn4c3CCCC4)c2)C2=C(CC(C)(C)NC2=O)NC2N=NC(C)=C21 (stereo unspecified) [US20250313563, Compound 945993]
46 | 100 to 1000 nM | < 100 nM | CC1(C)CC(=O)C2=C(C1)NC1=C(CN=N1)C21CCN(S(=O)(=O)c2cn3c(n2)CCCC3)CC1 [US20250313563, Compound 947472]
47 | 100 to 1000 nM | < 100 nM | CC[C@@]1(c2cccc(-c3ccnc(C)c3)c2)C2=CN=NC2NC2=C1C(=O)N[C@@]1(CCOC1)C2 (stereo partly specified) [US20250313563, Compound 948149]
48 | < 100 nM | < 100 nM | CC[C@@]1(c2cccc(N3CCOCC3)c2)C2=C(CC(C)(C)NC2=O)NC2N=NC(C(F)(F)F)=C21 (stereo partly specified) [US20250313563, Compound 949013]
49 | 100 to 1000 nM | < 100 nM | CCC1(c2cccc(Oc3ncccn3)c2)C2=CN=NC2NC2=C1C(=O)NC(C)(C)C2 (stereo unspecified) [US20250313563, Compound 948764]
50 | < 100 nM | < 100 nM | CC1(C)CC(=O)C2=C(C1)NC1=C(CN=N1)[C@]21CC[C@H](c2ccncc2)CC1 [US20250313563, Compound 949321]
51 | < 100 nM | < 100 nM | Cc1cc(C)cc(C(=O)N2CC3(C2)CC2(CO3)C3=C(N=NC3)NC3=C2C(=O)CC(C)(C)C3)c1 (stereo unspecified) [US20250313563, Compound 947296]
52 | > 5000 nM | 100 to 1000 nM | CC[C@@]1(c2cccc(-c3c4c(nn3C)CCCC4)c2)C2=CN=NC2NC2=C1C(=O)NC(C)(C)C2 (stereo partly specified) [US20250313563, Compound 948652]
53 | < 100 nM and 1000 to 5000 nM | < 100 nM and 100 to 1000 nM | CC[C@@]1(c2cccc(S(=O)(=O)C3CC3)c2)C2=CN=NC2NC2=C1C(=O)N(C)C(C)(C)C2 (stereo partly specified) [US20250313563, Compound 949177]
